{"source": "patent US9938495B2", "about": "“Composition comprising cryopreservation medium and stem cells obtained by slow-freezing” (FERTIPRO N.V., priority 2013, dated 2018)", "key": {"[1]": {"tested_on": "CT5.3-hTERT colon cancer-associated fibroblasts", "assay": "TGF-β-mediated growth inhibition in CT5.3-hTERT cells after cryopreservation (SRB assay, cell counter)", "assay_type": "cell-based", "settings": "control group (routine culture, not cryopreserved); TGF-β 1 ng/ml for 1 week; n=3", "experimental": "Immortalized CT5.3-hTERT colon cancer-associated fibroblasts have been used to evaluate cellular function following cryopreservation with two different cryopreservation media: • 1) a 10:90 (% V/V) mixture of dimethylsulfoxide (DMSO) and fetal bovine serum (FBS), as known in the art; and • 2) a propylene glycol-based DMSO-free cryopreservation medium as described in Table 1 (hereafter referred to as “PCM”).\nBriefly, early passage cells were cultured in routine culture medium (Dulbecco's Modified Eagle Medium (DMEM) containing 10% FBS, antibiotics and an antifungal product) at 37° C. in a humidified atmosphere with 5% CO2. Semi-confluent cells were harvested by trypsinization and cell concentration was assessed using the trypan blue exclusion method. […]\nThe cells of each group were treated with recombinant TGF-β (1 ng/ml) for 1 week. At the end of the experiment, cell concentration was measured using the sulforhodamine B (SRB) assay and an automated cell counter (trypan blue exclusion), respectively. […] Protein content was assessed by the bicinchoninic acid (BCA) test and concentrations were normalized, thus allowing for equal protein load for Western blot analysis. Expression of α-SMA was evaluated using a monoclonal HRP-coupled antibody, directed against this myofibroblast marker. […]"}, "[2]": {"tested_on": "(MSC)-hTERT mesenchymal stem cells", "assay": "Cryopreservation tests on (MSC)-hTERT mesenchymal stem cells with TGF-β treatment", "assay_type": "cell-based", "text": "It is noted that further cryopreservation tests on (MSC)-hTERT mesenchymal stem cells using the above-mentioned DMSO/FBS and PCM also show similar results for both cryopreservation media."}}}
{"substance": "TGF-β", "values": [{"measurement": "inhibition of cell proliferation by TGF-β", "setting": "[1]", "result": "79.84+/−4.43"}, {"measurement": "effect of TGF-β on α-SMA expression", "setting": "[2]", "result": "not to alter α-SMA expression"}]}
